Assay results from patent US9028856B2, “Synergistic pesticide compositions” (priority 2008, dated 2015).

How the values were obtained:
[1] = system: Aedes aegypti mosquito; assay: USDA Petri Dish Method, 3 min exposure to dipped fiberglass window screen; assay type: in vivo; conditions: dipped screen, 3 min exposure
Procedure: MATERIALS AND METHODS: Aqueous solutions of 1% deltamethrin with and without an adjuvant composition, which is sold under the tradename Suspend® SC. […] Pre-cut fiberglass screen (5″×5″, or 161.3 cm^2) were dipped in each treatment solution and excessive solution was allowed to drain completely (see FIG. 23 a). Weight of the solution coated on the screen was then determined. The treated screen was then allowed to air-dry overnight. USDA Petri Dish Method was used as initial screening protocol (see FIG. 23 b). Twenty, 4-6 day old female Aedes aegypti were exposed to treated window screen for 3 minutes and then moved onto a clean untreated white paper index card. Treatments were replicated a minimum of three times. Mosquito knockdown was evaluated at 3 minute intervals for the first 15 minutes and then at 5 minute intervals for the remainder of an hour. A small cotton ball with sucrose solution was added on the screen top of the Petri dish as a drinking source. Mortality was evaluated at 24 hours after exposure.
MATERIALS AND METHODS: Several rates of permethrin without adjuvant were prepared using product sold under the tradename Permanone® 40 to determine an effective rate against Aedes aegypti mosquitoes. After determining an effective rate range, aqueous solutions of permethrin at 1.25, 1.0 and 0.05% AI were prepared with and without adjuvant. […] Pre-cut fiberglass screens (5″×5″ or 161.3 cm^2) were dipped in each treatment solution allowing excessive solution to drain completely. Weight of the solution coated on the screen was then determined. The treated screen was then allowed to air-dry overnight. USDA Petri Dish Method was used as initial screening protocol (see photo, right). Twenty, 4-6 day old female Aedes aegypti were exposed to treated window screen for 3 minutes and then moved to a clean untreated white paper index card. Treatments were replicated a minimum of three times. Mosquito knockdown was evaluated at 3 minute intervals for the first 15 minutes and then at 5 minute intervals for the remainder of an hour. A small cotton ball with sucrose solution was added on the screen top of the petri-dish as a drinking source. Mortality was evaluated at 24 hours after exposure.

[2] = system: Aedes aegypti mosquito; assay: USDA Petri Dish Method, 3 min exposure to treated glazed tile; assay type: in vivo; conditions: Aedes aegypti
Procedure: (§1) Treatments were allowed to dry overnight. USDA Petri Dish Method was used as initial screening protocol. Twenty, 4-6 day old female Aedes aegypti mosquitoes were exposed to each treatment for 3 minutes and then moved to a clean untreated white paper index card. Treatments were replicated a minimum of three times. Mosquito knockdown was evaluated at various intervals through 7 hours after exposure. A small cotton ball soaked in sucrose solution was added on the screen top of the petri-dish as a drinking source. Mortality was evaluated at 24 hours after exposure.
MATERIALS AND METHODS: Solutions of resmethrin at 1 and 0.5% AI were prepared with and without adjuvant in acetone. […] USDA Petri Dish Method was used as initial screening protocol. Twenty, 4-6 day old female Aedes aegypti mosquitoes were exposed to each treatment for 3 minutes and then moved to a clean untreated white paper index card. Treatments were replicated a minimum of three times. Mosquito knockdown was evaluated at 3 minute intervals for the first 15 minutes and then at 5 minute intervals for the remainder of an hour. A small cotton ball soaked in sucrose solution was added on the screen top of the petri-dish as a drinking source. Mortality was evaluated at 24 hours after exposure.
as §1, with “6” for “7”
as §1, with “5 minute” for “various”, “for the first hour and then at 2, 4 and 6 hours.” for “through 7 hours after exposure.”
Treatments were allowed to dry overnight. USDA Petri Dish Method was used as initial screening protocol. Twenty, 4-6 day old female Aedes aegypti mosquitoes were exposed to each treatment for 3 minutes and then moved to a clean untreated white paper index card. Treatments were replicated a minimum of three times. Mosquito knockdown was evaluated at 3-5 minute intervals for the first hour. A small cotton ball soaked in sucrose solution was then added on the screen top of the petri-dish as a drinking source. Mortality was evaluated at 24 hours after exposure.
as §1, with “intervals through 2 hours after” for “intervals through 7 hours after”, “solution was then added on” for “solution was added on”
Treatments were allowed to dry overnight. USDA Petri Dish Method was used as initial screening protocol. Twenty, 4-6 day old female Aedes aegypti mosquitoes were exposed to each treatment for 3 minutes and then moved to a clean untreated white paper index card. Treatments were replicated a minimum of three times. Mosquito knockdown was evaluated at various hourly intervals. […]

[3] = Table 39, permethrin without adjuvant (Permanone 40)
[4] = Table 40, aqueous permethrin/adjuvant
[5] = Table 56, glazed tile, 3 min exposure
[6] = Table 56, glazed tile, 3 min exposure, adjuvant = Compound A 1% + Compound B 0.5%

| Structure (SMILES) | Average % Knockdown & Mortality after 3 min [1, 3] | Average % Knockdown & Mortality after 9 min [1, 3] | Average % Knockdown & Mortality after 15 min [1, 3] | Average % Knockdown & Mortality after 30 min [1, 3] | Average % Knockdown & Mortality after 60 min [1, 3] | Average % Knockdown & Mortality after 24 hr [1, 3] | further results |
| --- | --- | --- | --- | --- | --- | --- | --- |
| CC1(C)C(C=C(Cl)Cl)C1C(=O)OCc1cccc(Oc2ccccc2)c1 (stereo not drawn) [Permethrin (1.0%)] | 0% | 2% | 2% | 5% | 18% | 34% | Average % Knockdown & Mortality after 3 min [1, 4]: 2%; Average % Knockdown & Mortality after 9 min [1, 4]: 2%; Average % Knockdown & Mortality after 15 min [1, 4]: 2%; Average % Knockdown & Mortality after 30 min [1, 4]: 4%; Average % Knockdown & Mortality after 60 min [1, 4]: 13%; Average % Knockdown & Mortality after 24 hr [1, 4]: 28% |
| CC1(C)C(C=C(Cl)Cl)C1C(=O)OCc1cccc(Oc2ccccc2)c1 (stereo not drawn) [Permethrin (2.5%)] | 56% | 100% | 100% | 100% | 100% | 100% | – |
| CC[S+]([O-])c1c(C#N)nn(-c2c(Cl)cc(C(F)(F)F)cc2Cl)c1N (stereo not drawn) [Ethiprole (.01%)] | – | – | – | – | – | – | Average % Knockdown & Mortality after 4 hr [2, 5]: 2%; Average % Knockdown & Mortality after 6 hr [2, 5]: 12%; Average % Knockdown & Mortality after 24 hr [2, 5]: 17%; Average % Knockdown & Mortality after 2 hr [2, 6]: 0% |
| CC1(C)C(C=C(Cl)Cl)C1C(=O)OCc1cccc(Oc2ccccc2)c1 (stereo not drawn) [Permethrin (1.25%)] | 46% | 71% | 71% | 72% | 79% | 82% | Average % Knockdown & Mortality after 3 min [1, 4]: 0%; Average % Knockdown & Mortality after 9 min [1, 4]: 0%; Average % Knockdown & Mortality after 15 min [1, 4]: 2%; Average % Knockdown & Mortality after 30 min [1, 4]: 2%; Average % Knockdown & Mortality after 60 min [1, 4]: 3%; Average % Knockdown & Mortality after 24 hr [1, 4]: 7% |
| CC1(C)C(C=C(Cl)Cl)C1C(=O)OCc1cccc(Oc2ccccc2)c1 (stereo not drawn) [Permethrin (5%)] | 75% | 100% | 100% | 100% | 100% | 100% | – |
| CN/C(=N\[N+](=O)[O-])NCc1cnc(Cl)s1 [Clothianidin (1%)] | – | – | – | – | – | – | Average % Knockdown & Mortality after 1 hr ([2]; Table 78, clothianidin study, glazed tile, 3 min exposure, adjuvant = Compound A 1% + Compound B 0.5%, 1 hr): 0%; Average % Knockdown & Mortality after 2 hr ([2]; Table 78, clothianidin study): 0%; Average % Knockdown & Mortality after 4 hr ([2]; Table 78, clothianidin study): 0%; Average % Knockdown & Mortality after 24 hr ([2]; Table 78, clothianidin study): 0% |
| CC1(C)C(C=C(Cl)Cl)C1C(=O)OCc1cccc(Oc2ccccc2)c1 (stereo not drawn) [Permethrin (1.5%)] | 0% | 0% | 2% | 2% | 3% | 16% | – |
| CC1(C)C(C=C(Cl)Cl)C1C(=O)OCc1cccc(Oc2ccccc2)c1 (stereo not drawn) [Permethrin (0.1%)] | 0% | 0% | 0% | 0% | 0% | 5% | – |
| CC[S+]([O-])c1c(C#N)nn(-c2c(Cl)cc(C(F)(F)F)cc2Cl)c1N (stereo not drawn) [Ethiprole (.1%)] | – | – | – | – | – | – | Average % Knockdown & Mortality after 4 hr [2, 5]: 3%; Average % Knockdown & Mortality after 6 hr [2, 5]: 15%; Average % Knockdown & Mortality after 24 hr [2, 5]: 25%; Average % Knockdown & Mortality after 2 hr [2, 6]: 3% |
